According to US10385057B2, “Pyrazole compounds and methods of making and using same” (Lundbeck La Jolla Research Center, Inc., priority 2015, dated 2019):
pIC50: −log10 of the molar value.

Key:
FAAH = target: T1, FAAH (Mus musculus, UniProt O08914); assay: In vitro competitive activity-based protein profiling, mouse FAAH; assay type: biochemical; details: for inhibition at 1 µM: read-out: FAAH % inh. 1 μM (mouse)
T1 construct: mouse brain membrane fraction or cell lysates for mouse assays; from tissue
T1 sequence (O08914 1-579): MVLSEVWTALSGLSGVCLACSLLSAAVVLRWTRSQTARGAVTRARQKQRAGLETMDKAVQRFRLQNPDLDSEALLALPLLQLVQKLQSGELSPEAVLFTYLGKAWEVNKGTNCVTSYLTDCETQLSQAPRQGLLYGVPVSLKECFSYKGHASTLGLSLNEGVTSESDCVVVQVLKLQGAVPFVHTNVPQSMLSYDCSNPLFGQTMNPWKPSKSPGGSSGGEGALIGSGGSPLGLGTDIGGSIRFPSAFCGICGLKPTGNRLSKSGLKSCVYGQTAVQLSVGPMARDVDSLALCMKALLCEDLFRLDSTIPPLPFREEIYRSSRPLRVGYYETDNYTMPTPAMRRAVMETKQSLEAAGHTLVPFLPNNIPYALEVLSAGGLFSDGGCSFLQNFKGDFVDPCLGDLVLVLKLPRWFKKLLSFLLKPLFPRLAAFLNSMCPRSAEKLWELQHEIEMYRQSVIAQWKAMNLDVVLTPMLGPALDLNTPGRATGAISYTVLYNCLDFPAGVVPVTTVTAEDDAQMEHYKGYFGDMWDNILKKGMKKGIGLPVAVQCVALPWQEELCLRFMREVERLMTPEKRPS
How it was run: (§1)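 Mouse brain membranes or cell lysates (mouse) and human prefrontal cortex or cell membrane fractions (human), 1.0 mg/mL protein, preincubated with inhibitor 30 min at 37 °C, then FP-Rh or HT-01 probe 30 min at 37 °C. SDS-PAGE; MAGL and FAAH activity from in-gel fluorescence band intensity.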

MAGL = target: T2, MAGL (Mus musculus, UniProt O35678); assay: In vitro competitive activity-based protein profiling, mouse MAGL; assay type: biochemical; details: for inhibition at 1 µM: read-out: MAGL % inh. 1 μM (mouse)
T2 construct: mouse brain membrane fraction or cell lysates for mouse assays; from tissue
T2 sequence (O35678 1-303): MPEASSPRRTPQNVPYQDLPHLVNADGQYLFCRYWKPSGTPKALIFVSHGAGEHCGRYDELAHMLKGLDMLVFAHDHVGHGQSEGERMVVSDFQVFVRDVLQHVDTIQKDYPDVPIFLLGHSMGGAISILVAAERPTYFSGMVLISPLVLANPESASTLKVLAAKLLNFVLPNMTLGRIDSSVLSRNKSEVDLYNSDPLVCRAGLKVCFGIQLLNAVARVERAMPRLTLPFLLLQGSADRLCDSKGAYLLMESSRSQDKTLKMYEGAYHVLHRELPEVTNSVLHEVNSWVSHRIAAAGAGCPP
How it was run: as §1

CN(Cc1ccc(-c2cccnn2)cc1C(F)(F)F)[C@@H]1C[C@@H]2CN(C(=O)n3cc(C(N)=O)cn3)C[C@@H]2C1 [Example 191, 1-(cis-5-(methyl(4-(pyridazin-3-yl)-2-(trifluoromethyl)benzyl)amino)octahydrocyclopenta[c]pyrrole-2-carbonyl)-1H-pyrazole-4-carboxamide]
inhibition at 1 µM (FAAH): ≥ 75%
inhibition at 1 µM (MAGL): ≥ 75%

NC(=O)c1cnn(C(=O)N2CC[C@@]3(CCN(Cc4cc(Cl)cc(C(F)(F)F)c4)C3)C2)c1 [Example 192, (R)-1-(7-(3-chloro-5-(trifluoromethyl)benzyl)-2,7-diazaspiro[4.4]nonane-2-carbonyl)-1H-pyrazole-4-carboxamide]
pIC50 (FAAH): ≥ 7.00
pIC50 (MAGL): ≥ 7.00

NC(=O)c1cnn(C(=O)N2CC[C@]3(CCN(Cc4cc(Cl)cc(C(F)(F)F)c4)C3)C2)c1 [Example 193, (S)-1-(7-(3-chloro-5-(trifluoromethyl)benzyl)-2,7-diazaspiro[4.4]nonane-2-carbonyl)-1H-pyrazole-4-carboxamide]
pIC50 (FAAH): ≥ 7.00
pIC50 (MAGL): ≥ 7.00

NC(=O)c1cnn(C(=O)N2CC[C@@]3(CCN(Cc4ccc(N5CCOCC5)cc4C(F)(F)F)C3)C2)c1 [Example 194, (R)-1-(7-(4-morpholino-2-(trifluoromethyl)benzyl)-2,7-diazaspiro[4.4]nonane-2-carbonyl)-1H-pyrazole-4-carboxamide]
inhibition at 1 µM (FAAH): ≥ 75%
inhibition at 1 µM (MAGL): ≥ 75%

O=C(c1cnn(C(=O)N2CC3CN(Cc4cccc(Oc5ccc(Cl)cc5)c4)CC3C2)c1)N1CCOCC1 (centres unmarked) [Example 199, (5-(3-(4-chlorophenoxy)benzyl)hexahydropyrrolo[3,4-c]pyrrol-2(1H)-yl)(4-(morpholine-4-carbonyl)-1H-pyrazol-1-yl)methanone]
pIC50 (FAAH): ≥ 7.00
inhibition at 1 µM (FAAH): ≥ 75%
pIC50 (MAGL): 5.00 to 6.00
inhibition at 1 µM (MAGL): 25 to 50%

O=C(c1cnn(C(=O)N2CC3CN(Cc4ccc(Oc5ccc(Cl)cc5)cc4)CC3C2)c1)N1CCOCC1 (centres unmarked) [Example 200, (5-(4-(4-chlorophenoxy)benzyl)hexahydropyrrolo[3,4-c]pyrrol-2(1H)-yl)(4-(morpholine-4-carbonyl)-1H-pyrazol-1-yl)methanone]
inhibition at 1 µM (FAAH): ≥ 75%
inhibition at 10 µM (FAAH; 10 μM, read-out: FAAH % inh. at 10 μM (mouse)): 100%
inhibition at 1 µM (MAGL): 0 to 25%
inhibition at 10 µM (MAGL; 10 μM, read-out: MAGL % inh. at 10 μM (mouse)): 50%

NC(=O)c1cnn(C(=O)N2CCC3(CCN(Cc4ccc(-c5nccs5)cc4Cl)C3)C2)c1 (centres unmarked) [Example 201, 1-(7-(2-chloro-4-(thiazol-2-yl)benzyl)-2,7-diazaspiro[4.4]nonane-2-carbonyl)-1H-pyrazole-4-carboxamide]
inhibition at 1 µM (FAAH): ≥ 75%
inhibition at 1 µM (MAGL): ≥ 75%

NC(=O)c1cnn(C(=O)N2CCC3(CCN(Cc4ccc(Cl)c(Cl)c4)C3)C2)c1 (centres unmarked) [Example 202, 1-(7-(3,4-dichlorobenzyl)-2,7-diazaspiro[4.4]nonane-2-carbonyl)-1H-pyrazole-4-carboxamide]
inhibition at 1 µM (FAAH): ≥ 75%
inhibition at 1 µM (MAGL): ≥ 75%

NC(=O)c1cnn(C(=O)N2CCC3(CCN(Cc4ccc(N5CCCC5)cc4C(F)(F)F)C3)C2)c1 (centres unmarked) [Example 203, 1-(7-(4-(pyrrolidin-1-yl)-2-(trifluoromethyl)benzyl)-2,7-diazaspiro[4.4]nonane-2-carbonyl)-1H-pyrazole-4-carboxamide]
inhibition at 1 µM (FAAH): ≥ 75%
inhibition at 1 µM (MAGL): ≥ 75%

NC(=O)c1cnn(C(=O)N2CCC3(CCN(Cc4ccc(N5CCOCC5)cc4Cl)C3)C2)c1 (centres unmarked) [Example 204, 1-(7-(2-chloro-4-morpholinobenzyl)-2,7-diazaspiro[4.4]nonane-2-carbonyl)-1H-pyrazole-4-carboxamide]
inhibition at 1 µM (FAAH): ≥ 75%
inhibition at 1 µM (MAGL): ≥ 75%

NC(=O)c1cnn(C(=O)N2CCC3(CCN(Cc4ccc(N5CCCC5)cc4Cl)C3)C2)c1 (centres unmarked) [Example 205, 1-(7-(2-chloro-4-(pyrrolidin-1-yl)benzyl)-2,7-diazaspiro[4.4]nonane-2-carbonyl)-1H-pyrazole-4-carboxamide]
inhibition at 1 µM (FAAH): ≥ 75%
inhibition at 1 µM (MAGL): ≥ 75%

NC(=O)c1cnn(C(=O)N2CCC3(CCN(Cc4ccc(N5CCOCC5)c(C(F)(F)F)c4)C3)C2)c1 (centres unmarked) [Example 206, 1-(7-(4-morpholino-3-(trifluoromethyl)benzyl)-2,7-diazaspiro[4.4]nonane-2-carbonyl)-1H-pyrazole-4-carboxamide]
inhibition at 1 µM (FAAH): ≥ 75%
inhibition at 1 µM (MAGL): ≥ 75%

NC(=O)c1cnn(C(=O)N2CCC3(CCN(Cc4ccc(N5CCCC5)c(C(F)(F)F)c4)C3)C2)c1 (centres unmarked) [Example 207, 1-(7-(4-(pyrrolidin-1-yl)-3-(trifluoromethyl)benzyl)-2,7-diazaspiro[4.4]nonane-2-carbonyl)-1H-pyrazole-4-carboxamide]
inhibition at 1 µM (FAAH): ≥ 75%
inhibition at 1 µM (MAGL): ≥ 75%

NC(=O)c1cnn(C(=O)N2CCC3(CCN(Cc4ccc(C(F)(F)F)c(N5CCOCC5)c4)C3)C2)c1 (centres unmarked) [Example 208, 1-(7-(3-morpholino-4-(trifluoromethyl)benzyl)-2,7-diazaspiro[4.4]nonane-2-carbonyl)-1H-pyrazole-4-carboxamide]
inhibition at 1 µM (FAAH): ≥ 75%
inhibition at 1 µM (MAGL): ≥ 75%

NC(=O)c1cnn(C(=O)N2CCC3(CCN(Cc4ccc(C(F)(F)F)c(N5CCCC5)c4)C3)C2)c1 (centres unmarked) [Example 209, 1-(7-(3-(pyrrolidin-1-yl)-4-(trifluoromethyl)benzyl)-2,7-diazaspiro[4.4]nonane-2-carbonyl)-1H-pyrazole-4-carboxamide]
inhibition at 1 µM (FAAH): ≥ 75%
inhibition at 1 µM (MAGL): ≥ 75%

NC(=O)c1cnn(C(=O)N2CCC3(CCN(Cc4cc(N5CCCC5)cc(C(F)(F)F)c4)C3)C2)c1 (centres unmarked) [Example 211, 1-(7-(3-(pyrrolidin-1-yl)-5-(trifluoromethyl)benzyl)-2,7-diazaspiro[4.4]nonane-2-carbonyl)-1H-pyrazole-4-carboxamide]
inhibition at 1 µM (FAAH): ≥ 75%
inhibition at 1 µM (MAGL): ≥ 75%

NC(=O)c1cnn(C(=O)N2CCC3(CCN(Cc4cc(N5CCOCC5)ccc4C(F)(F)F)C3)C2)c1 (centres unmarked) [Example 212, 1-(7-(5-morpholino-2-(trifluoromethyl)benzyl)-2,7-diazaspiro[4.4]nonane-2-carbonyl)-1H-pyrazole-4-carboxamide]
inhibition at 1 µM (FAAH): ≥ 75%
inhibition at 1 µM (MAGL): ≥ 75%

NC(=O)c1cnn(C(=O)N2CCC3(CCN(Cc4cc(N5CCCC5)ccc4C(F)(F)F)C3)C2)c1 (centres unmarked) [Example 213, 1-(7-(5-(pyrrolidin-1-yl)-2-(trifluoromethyl)benzyl)-2,7-diazaspiro[4.4]nonane-2-carbonyl)-1H-pyrazole-4-carboxamide]
inhibition at 1 µM (FAAH): 50 to 75%
inhibition at 1 µM (MAGL): ≥ 75%

CN(Cc1cc(C(F)(F)F)ccc1Cl)[C@H]1C[C@@H]2CN(C(=O)n3cc(C(N)=O)cn3)C[C@@H]2C1 [Example 214, 1-(trans-5-((2-chloro-5-(trifluoromethyl)benzyl)(methyl)amino)octahydrocyclopenta[c]pyrrole-2-carbonyl)-1H-pyrazole-4-carboxamide]
inhibition at 1 µM (FAAH): ≥ 75%
inhibition at 1 µM (MAGL): ≥ 75%

CN(Cc1cc(Cl)ccc1C(F)(F)F)[C@H]1C[C@@H]2CN(C(=O)n3cc(C(N)=O)cn3)C[C@@H]2C1 [Example 215, 1-(trans-5-((5-chloro-2-(trifluoromethyl)benzyl)(methyl)amino)octahydrocyclopenta[c]pyrrole-2-carbonyl)-1H-pyrazole-4-carboxamide]
inhibition at 1 µM (FAAH): ≥ 75%
inhibition at 1 µM (MAGL): ≥ 75%

CN(Cc1ccc(C(F)(F)F)c(N2CCCC2)c1)[C@H]1C[C@@H]2CN(C(=O)n3cc(C(N)=O)cn3)C[C@@H]2C1 [Example 216, 1-(trans-5-(methyl(3-(pyrrolidin-1-yl)-4-(trifluoromethyl)benzyl)amino)octahydrocyclopenta[c]pyrrole-2-carbonyl)-1H-pyrazole-4-carboxamide]
inhibition at 1 µM (FAAH): ≥ 75%
inhibition at 1 µM (MAGL): ≥ 75%

CN(Cc1cc(N2CCCC2)cc(C(F)(F)F)c1)[C@H]1C[C@@H]2CN(C(=O)n3cc(C(N)=O)cn3)C[C@@H]2C1 [Example 217, 1-(trans-5-(methyl(3-(pyrroldin-1-yl)-5-(trifluoromethyl)benzyl)amino)octahydrocyclopenta[c]pyrrole-2-carbonyl)-1H-pyrazole-4-carboxamide]
inhibition at 1 µM (FAAH): ≥ 75%
inhibition at 1 µM (MAGL): ≥ 75%

CN(Cc1cc(C(F)(F)F)ccc1Cl)[C@@H]1C[C@@H]2CN(C(=O)n3cc(C(N)=O)cn3)C[C@@H]2C1 [Example 218, 1-(cis-5-((2-chloro-5-(trifluoromethyl)benzyl)(methyl)amino)octahydrocyclopenta[c]pyrrole-2-carbonyl)-1H-pyrazole-4-carboxamide]
inhibition at 1 µM (FAAH): ≥ 75%
inhibition at 1 µM (MAGL): ≥ 75%
